# Test results reported in ChEMBL document CHEMBL1201862, “PubChem BioAssay data set” (2004).
# Activity calls are given as the source filed them.
# Legend:
# [1] = target: Arf-GAP with SH3 domain, ANK repeat and PH domain-containing protein 1 (Homo sapiens, UniProt Q9ULH1); assay type: functional;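 note: biochemical fluorescence polarization dose–response screen measuring inhibition of ASAP1; ASAP1 GAP domain stimulating GTP hydrolysis by truncated human ARF1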
# cells = assay type: functional, cell-based
# [2] = target: T1, Nuclear receptor subfamily 0 group B member 1 (Homo sapiens, UniProt P51843); assay type: functional, cell-based;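 note: HEK293T cells transfected with SF-1 and DAX-1 plus StAR promoter luciferase reporter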
# T1 sequence (P51843 whole entry): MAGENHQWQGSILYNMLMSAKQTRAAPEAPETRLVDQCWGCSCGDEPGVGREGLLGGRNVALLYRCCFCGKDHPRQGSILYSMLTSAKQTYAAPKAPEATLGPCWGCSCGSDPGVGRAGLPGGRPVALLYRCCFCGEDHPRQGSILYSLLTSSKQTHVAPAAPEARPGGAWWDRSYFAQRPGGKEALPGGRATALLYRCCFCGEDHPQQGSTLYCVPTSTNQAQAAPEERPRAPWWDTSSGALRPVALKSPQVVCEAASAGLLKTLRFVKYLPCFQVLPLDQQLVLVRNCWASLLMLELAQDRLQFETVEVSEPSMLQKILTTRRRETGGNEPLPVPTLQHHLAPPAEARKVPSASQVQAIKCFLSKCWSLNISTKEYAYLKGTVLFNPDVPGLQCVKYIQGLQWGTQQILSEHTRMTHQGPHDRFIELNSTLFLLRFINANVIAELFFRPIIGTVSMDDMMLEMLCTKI
# [3] = MC4R antagonists, dose response, counter-screen for LGR2 antagonist project, cell-based, plate reader, cherry pick (AID 743444); assay type: functional;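 note: transfected HEK 293 cells stimulated with alpha-MSH peptide; potency of inhibitors of the alpha-MSH evoked signal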
# [4] = LGR2 antagonists, dose response, cell-based, HEK293, CRE-luciferase reporter, cherry pick, set 2 (AID 743343); assay type: functional;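 note: transfected cells were stimulated with diluted bursicon conditioned medium after compound addition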
# [5] = HEK293 cell cytotoxicity, dose response, cytotoxicity control, plate reader, cherry-picked samples (AID 743446); assay type: functional, cell-based
# [6] = LMP1-driven NF-kB reporter inhibition, dose response, cell-based, luciferase reporter, luminescence, dry powder, set 2 (AID 624376); assay type: functional
# HEK293 = experiment: HEK293T cell cytotoxicity, dose response, cytotoxicity control, ATP luminescence, cherry-pick samples (AID 687005); assay type: functional, cell-based; details: Homo sapiens;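 note: cells exposed to compound for 48 hours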
# [7] = A2780 ovarian cancer cell cytotoxicity, dose response, cytotoxicity control, plate reader, dry powder samples (AID 743046); assay type: functional, cell-based
# Paired box protein Pax-8 = Paired box protein Pax-8 (Homo sapiens, UniProt Q06710); experiment: inhibitors of PAX8-driven TPO luciferase reporter, dose response, RMG-I cells, cherry-pick (AID 687027); assay type: functional, cell-based;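 note: luciferase reporter driven by Pax8 target thyroperoxidase promoter measured by SteadyGlo luminescence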
# Chain of Paired box protein Pax-8 (Q06710 whole entry): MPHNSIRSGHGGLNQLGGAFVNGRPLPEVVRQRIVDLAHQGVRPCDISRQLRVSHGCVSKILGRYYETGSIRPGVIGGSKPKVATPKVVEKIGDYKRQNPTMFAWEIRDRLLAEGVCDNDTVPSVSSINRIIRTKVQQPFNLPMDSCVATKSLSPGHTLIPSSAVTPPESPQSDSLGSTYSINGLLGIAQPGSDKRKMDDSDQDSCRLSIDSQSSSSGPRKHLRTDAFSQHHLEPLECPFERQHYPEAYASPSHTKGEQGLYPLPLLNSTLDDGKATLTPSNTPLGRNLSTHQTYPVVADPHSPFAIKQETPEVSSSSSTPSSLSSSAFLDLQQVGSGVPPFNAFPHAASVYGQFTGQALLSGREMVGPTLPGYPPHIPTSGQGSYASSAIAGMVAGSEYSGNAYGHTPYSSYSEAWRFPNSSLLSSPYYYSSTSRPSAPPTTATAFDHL
# [8] = HEK293 Cytotoxicity Assay Measured in Cell-Based System Using Plate Reader - 7071-01_Inhibitor_Dose_CherryPick_Activity_Set2.; assay type: functional
# [9] = target: Sphingosine 1-phosphate receptor 1 (Homo sapiens, UniProt P21453); experiment: Late-stage counterscreen for antagonists of kappa opioid receptor 1 (OPRK1): fluorescence-based cell-based dose response assay to identify antagonists of Sphingosine 1-Phosphate Receptor 1 (S1P1).; assay type: functional
# Chain of Sphingosine 1-phosphate receptor 1 (P21453 whole entry): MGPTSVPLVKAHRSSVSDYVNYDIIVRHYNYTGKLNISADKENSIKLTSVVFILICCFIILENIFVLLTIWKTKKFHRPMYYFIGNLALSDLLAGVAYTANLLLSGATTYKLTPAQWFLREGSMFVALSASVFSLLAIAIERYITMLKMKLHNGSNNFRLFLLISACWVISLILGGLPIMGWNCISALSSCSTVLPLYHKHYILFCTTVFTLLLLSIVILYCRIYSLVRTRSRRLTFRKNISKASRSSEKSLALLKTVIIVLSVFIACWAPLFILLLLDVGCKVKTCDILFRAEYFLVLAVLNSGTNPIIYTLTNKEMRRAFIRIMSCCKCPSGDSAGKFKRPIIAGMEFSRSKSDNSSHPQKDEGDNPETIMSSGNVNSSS
# [10] = target: Delta-type opioid receptor (Homo sapiens, UniProt P41143); experiment: Late-stage results from the probe development effort to identify antagonists of OPRK1: fluorescence-based cell-based dose response OPRD1 counterscreen, Set 2.; assay type: functional
# Chain of Delta-type opioid receptor (P41143 whole entry): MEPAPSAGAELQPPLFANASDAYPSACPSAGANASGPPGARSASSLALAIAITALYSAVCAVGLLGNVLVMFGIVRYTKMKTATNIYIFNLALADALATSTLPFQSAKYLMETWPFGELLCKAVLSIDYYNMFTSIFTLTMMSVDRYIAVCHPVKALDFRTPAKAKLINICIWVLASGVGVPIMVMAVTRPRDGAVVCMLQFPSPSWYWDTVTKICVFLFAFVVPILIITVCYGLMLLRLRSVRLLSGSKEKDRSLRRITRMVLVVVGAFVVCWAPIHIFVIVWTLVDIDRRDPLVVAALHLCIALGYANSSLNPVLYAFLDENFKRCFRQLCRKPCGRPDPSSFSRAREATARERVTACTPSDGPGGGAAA
# Mu-type opioid receptor = Mu-type opioid receptor (Homo sapiens, UniProt P35372); experiment: Late-stage results from the probe development effort to identify antagonists of OPRK1: luminescence-based cell-based dose response OPRM1 counterscreen, Set 2.; assay type: functional
# Chain of Mu-type opioid receptor (P35372 whole entry): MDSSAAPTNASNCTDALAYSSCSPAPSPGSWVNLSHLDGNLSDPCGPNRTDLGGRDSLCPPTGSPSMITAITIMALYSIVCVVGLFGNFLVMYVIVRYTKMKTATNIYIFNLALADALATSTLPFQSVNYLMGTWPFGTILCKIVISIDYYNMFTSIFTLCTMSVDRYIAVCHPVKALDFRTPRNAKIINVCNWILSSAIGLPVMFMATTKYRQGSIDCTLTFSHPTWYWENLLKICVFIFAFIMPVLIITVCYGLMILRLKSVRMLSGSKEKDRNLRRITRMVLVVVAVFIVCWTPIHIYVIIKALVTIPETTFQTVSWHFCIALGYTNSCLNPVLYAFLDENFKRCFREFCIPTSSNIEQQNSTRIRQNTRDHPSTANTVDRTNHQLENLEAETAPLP
# [11] = target: Kappa-type opioid receptor (Homo sapiens, UniProt P41145); experiment: Late-stage fluorescence-based cell-based dose response assay for antagonists of kappa opioid receptor 1 (OPRK1).; assay type: functional
# Chain of Kappa-type opioid receptor (P41145 whole entry): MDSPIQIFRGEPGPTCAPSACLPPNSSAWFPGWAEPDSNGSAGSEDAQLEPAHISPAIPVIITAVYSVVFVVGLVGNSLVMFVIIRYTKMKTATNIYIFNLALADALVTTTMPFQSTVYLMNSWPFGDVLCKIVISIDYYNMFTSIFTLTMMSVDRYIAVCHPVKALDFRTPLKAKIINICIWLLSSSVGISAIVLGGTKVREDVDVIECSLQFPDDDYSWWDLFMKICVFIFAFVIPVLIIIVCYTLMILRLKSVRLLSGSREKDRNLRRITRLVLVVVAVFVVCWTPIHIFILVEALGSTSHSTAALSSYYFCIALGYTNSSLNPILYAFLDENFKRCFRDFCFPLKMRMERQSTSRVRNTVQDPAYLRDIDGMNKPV
# [12] = cytotoxicity in OVCAR8 ovarian cancer cells, dose response, PAX8 project, cell-based, plate reader, dry powder samples (AID 743197); assay type: functional; details: OVCAR-8
# [13] = HEK293T cytotoxicity, dose response, cytotoxicity control for miR-122 modulator project, cell-based, inhibitor set, cherry-pick, set 2 (AID 720697); assay type: functional
# [14] = lymphoblastoid cell cytotoxicity, dose response, cytotoxicity control, plate reader, dry powder, set 2 (AID 624367); assay type: functional
# [15] = miR-122 activators in hepatoma reporter cells, dose response, cell-based, Huh7 psiCHECK-miR122, Renilla luciferase, cherry-picked (AID 651956); assay type: functional;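 note: huh7 hepatoma cells stably carrying a psiCHECK-2 miR-122 sensor plasmid; renilla luciferase signal reporting endogenous miR-122 activity after 48 h compound exposure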
# Chain of Arf-GAP with SH3 domain, ANK repeat and PH domain-containing protein 1 (Q9ULH1 whole entry, the tested form may be a part): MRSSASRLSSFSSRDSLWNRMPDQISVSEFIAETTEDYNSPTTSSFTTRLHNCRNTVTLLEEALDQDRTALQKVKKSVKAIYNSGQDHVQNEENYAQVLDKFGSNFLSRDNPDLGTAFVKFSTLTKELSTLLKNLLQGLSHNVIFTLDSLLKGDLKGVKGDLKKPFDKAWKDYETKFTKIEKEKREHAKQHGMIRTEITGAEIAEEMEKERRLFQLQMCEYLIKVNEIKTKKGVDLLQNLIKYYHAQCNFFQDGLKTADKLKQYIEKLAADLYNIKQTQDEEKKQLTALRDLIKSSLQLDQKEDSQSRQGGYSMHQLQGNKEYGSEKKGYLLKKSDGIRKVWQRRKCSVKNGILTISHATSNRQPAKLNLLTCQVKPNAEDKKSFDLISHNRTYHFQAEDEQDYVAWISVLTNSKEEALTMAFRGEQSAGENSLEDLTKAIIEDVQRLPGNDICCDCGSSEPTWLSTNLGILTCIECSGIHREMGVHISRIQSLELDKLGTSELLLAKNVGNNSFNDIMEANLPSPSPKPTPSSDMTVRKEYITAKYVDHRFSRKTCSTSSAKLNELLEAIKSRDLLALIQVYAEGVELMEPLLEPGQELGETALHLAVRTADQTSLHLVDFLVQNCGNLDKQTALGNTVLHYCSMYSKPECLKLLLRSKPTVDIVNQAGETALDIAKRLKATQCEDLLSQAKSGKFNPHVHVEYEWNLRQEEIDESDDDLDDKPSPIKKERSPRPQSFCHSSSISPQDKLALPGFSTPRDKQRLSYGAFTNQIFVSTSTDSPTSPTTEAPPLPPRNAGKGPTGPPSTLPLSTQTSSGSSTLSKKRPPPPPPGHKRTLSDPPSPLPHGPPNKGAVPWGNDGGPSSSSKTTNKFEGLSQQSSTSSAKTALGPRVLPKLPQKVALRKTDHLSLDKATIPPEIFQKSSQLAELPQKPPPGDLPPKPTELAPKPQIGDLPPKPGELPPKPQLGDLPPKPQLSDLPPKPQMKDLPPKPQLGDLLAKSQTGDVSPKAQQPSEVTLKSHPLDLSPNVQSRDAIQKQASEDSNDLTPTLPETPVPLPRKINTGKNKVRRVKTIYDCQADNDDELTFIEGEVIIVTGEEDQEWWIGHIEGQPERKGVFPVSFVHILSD
structure (smiles),measurement,setting,value
O=C(Cn1cncc1-c1ccc([N+](=O)[O-])cc1)Nc1cccc2ccccc12,IC50,[1],28.1 µM (inactive)
Cc1ccnc(NC(=O)c2cccc(S(=O)(=O)N3CCN(c4ccccc4)CC3)c2)c1,IC50,cells,> 67.5 µM (inactive)
same,IC50,[2],> 67.5 µM (inactive)
same,AC50,[3],14.6 µM (active)
same,AC50,[4],12.4 µM (active)
same,AC50,[5],> 52 µM (inactive)
Cc1noc(C)c1S(=O)(=O)Nc1ccc2c(c1)C(=O)N([C@@H](C)CO)C[C@H](C)[C@@H](CN(C)Cc1ccc(C(F)(F)F)cc1)OCCCC[C@@H](C)O2,AbsAC35,[6],101.91 µM
COc1cccc(S(=O)(=O)N(C)C[C@@H]2OCc3ccccc3-c3ccccc3C(=O)N([C@@H](C)CO)C[C@@H]2C)c1,AC50,HEK293,36 µM (active)
same,AC50,[7],53.8 µM (active)
same,AC50,Paired box protein Pax-8,15.9 µM (active)
same,AC50,[8],36 µM (active)
CCOC(=O)c1ccc(N2CC3CCCCN3C2c2cccc(OC)c2O)cc1 (stereo not given),IC50,[9],> 50 µM (inactive)
same,IC50,[10],> 50 µM (inactive)
same,IC50,Mu-type opioid receptor,> 50 µM (inactive)
same,IC50,[11],6.85 µM (active)
COc1ccc(-c2cn(CC[C@H]3CC[C@@H](NC(=O)Cc4ccccn4)[C@@H](CO)O3)nn2)cc1,AC50,[7],0.315 µM (active)
same,AC50,[12],> 70 µM (inactive)
C[C@H](CO)N1C[C@H](C)[C@H](CN(C)C(=O)NC2CCCCC2)Oc2cc(/C=C/c3ccccc3)ccc2S1(=O)=O,AC50,[13],15.9 µM (active)
same,AbsAC35,[14],53.47 µM
same,AC50,[15],19.1 µM (active)
